Laboratory results: patent US7091192B1, “Linear cyclodextrin copolymers” (California Institute of Technology, priority 1998, dated 2006)

Experiments:
[1] = pH 7.1; Husain et al., Applied Spectroscopy 1992; cited from earlier work
KB cell line = test: MTT toxicity assay, small molecule delivery to cultured cells (KB)
Experimental: (§1) Media containing doxorubicin and doxorubicin/CD-polymer complexes at various concentrations were applied to cultured cell lines. After 5 hours, the media was removed and replaced with fresh media. […] ([…], “Culture of Animal Cells”, 3rd ed., Wiley-Liss: New York (1994)). […] For receptor-mediated delivery, a ligand such a folate is covalently attached to the CD-polymer used for doxorubicin complexation.

[2] = tested on: KB-VI (a multidrug resistant derivative of KB) cell line; test: MTT toxicity assay, small molecule delivery to cultured cells (KB-VI)
Experimental: as §1

[3] = Homo sapiens, KB, 5 h, read-out: IC50 (μM of doxorubicin)

Compound: OC[C@H]1O[C@@H]2O[C@H]3[C@H](O)[C@@H](O)[C@@H](O[C@H]4[C@H](O)[C@@H](O)[C@@H](O[C@H]5[C@H](O)[C@@H](O)[C@@H](O[C@H]6[C@H](O)[C@@H](O)[C@@H](O[C@H]7[C@H](O)[C@@H](O)[C@@H](O[C@H]8[C@H](O)[C@@H](O)[C@@H](O[C@H]1[C@H](O)[C@H]2O)O[C@@H]8CO)O[C@@H]7CO)O[C@@H]6CO)O[C@@H]5CO)O[C@@H]4CO)O[C@@H]3CO [β-CD, β-cyclodextrin]
- Association constant between β-CD and doxorubicin [1]: 210 M⁻¹

Compound: β-cyclodextrin(cystamine)-DTBP Copolymer [Copolymer 15]
- Toxicity to KB cells in the absence of doxorubicin (KB cell line): not toxic
- Toxicity to KB-VI cells in the absence of doxorubicin [2]: not toxic

Compound: COc1cccc2c1C(=O)c1c(O)c3c(c(O)c1C2=O)C[C@@](O)(C(=O)CO)C[C@@H]3O[C@H]1C[C@H](N)[C@H](O)[C@H](C)O1 [doxorubicin]
- IC50 (KB cell line; [3]): ~0.1 µM
- IC50 [2, 3]: ~10 µM
